In patent US11986471B2, “Compounds and methods of use” (Tango Therapeutics, Inc., priority 2018, dated 2024):

How the values were obtained:
HAP1 MTAP-intact = assay: SDMA in-cell western assay, HAP1 MTAP-intact cell line; type: cell-based; conditions: Homo sapiens
In short: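 Potency reflects cellular SDMA reduction, detected by in-cell western, in HAP1 cells with or without MTAP (endogenous expression versus null).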

HAP1 MTAP-deleted = assay: SDMA in-cell western assay, HAP1 MTAP-deleted cell line; type: cell-based; conditions: for IC50: Homo sapiens, HAP1 MTAP-deleted cell line; for MTAP Intact/Deleted Ratio: IC50 ratio HAP1 MTAP-intact / HAP1 MTAP-deleted
In short: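 These are IC50 values from an in-cell western measuring SDMA. The HAP1 cells used carry no MTAP, in contrast to the isogenic partner line with endogenous MTAP expression.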

PRMT5 [1] = target: T1, PRMT5 (Homo sapiens, UniProt O14744); assay: PRMT5 IC50 assay in the presence of SAM as cofactor; type: biochemical
T1 construct: purchased Viva (custom protein)
T1 sequence (O14744 whole entry): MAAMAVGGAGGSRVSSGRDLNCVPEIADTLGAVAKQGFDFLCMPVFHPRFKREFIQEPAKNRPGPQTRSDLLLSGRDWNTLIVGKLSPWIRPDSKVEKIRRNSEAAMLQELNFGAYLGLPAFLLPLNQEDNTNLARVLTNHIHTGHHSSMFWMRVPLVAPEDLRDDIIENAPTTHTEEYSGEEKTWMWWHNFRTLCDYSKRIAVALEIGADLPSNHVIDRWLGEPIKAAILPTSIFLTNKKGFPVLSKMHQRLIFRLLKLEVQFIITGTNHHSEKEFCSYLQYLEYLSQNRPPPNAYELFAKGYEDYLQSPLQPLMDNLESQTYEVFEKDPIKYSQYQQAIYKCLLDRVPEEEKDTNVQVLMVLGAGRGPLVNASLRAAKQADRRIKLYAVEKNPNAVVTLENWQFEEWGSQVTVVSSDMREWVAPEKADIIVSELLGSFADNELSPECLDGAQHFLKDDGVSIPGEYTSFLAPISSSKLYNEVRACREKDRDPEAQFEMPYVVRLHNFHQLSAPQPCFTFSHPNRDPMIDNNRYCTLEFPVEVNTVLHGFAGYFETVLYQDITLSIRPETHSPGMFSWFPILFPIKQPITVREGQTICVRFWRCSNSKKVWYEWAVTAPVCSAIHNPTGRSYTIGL
T1 sequence (Q9BQA1 whole entry partner): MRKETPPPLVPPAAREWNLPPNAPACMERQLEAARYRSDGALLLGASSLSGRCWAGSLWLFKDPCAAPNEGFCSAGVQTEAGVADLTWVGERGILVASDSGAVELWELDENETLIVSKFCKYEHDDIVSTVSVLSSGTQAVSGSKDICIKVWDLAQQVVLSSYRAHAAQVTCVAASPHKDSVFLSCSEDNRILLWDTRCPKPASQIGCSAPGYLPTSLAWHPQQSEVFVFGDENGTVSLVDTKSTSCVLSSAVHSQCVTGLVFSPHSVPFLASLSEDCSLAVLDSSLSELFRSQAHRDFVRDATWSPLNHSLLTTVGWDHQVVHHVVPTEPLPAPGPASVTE
In short: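 Cofactor-free, SAM and MTA formats; IC50 μM; Ki = IC50/1.5 for SAM, IC50/13.5 for MTA.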

PRMT5 [2] = target: T1, PRMT5; assay: PRMT5 IC50 assay with no cofactor; type: biochemical
In short: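 Human PRMT5 inhibition, IC50 in μM; cofactor varied (SAM / MTA / none).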

PRMT5 [3] = target: T1, PRMT5; assay: PRMT5 IC50 assay in the presence of MTA as cofactor; type: biochemical; conditions: for IC50: PRMT5, MTA as cofactor
In short: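 IC50 values were measured against human PRMT5 with SAM, with MTA, or with no cofactor. Ki was derived from IC50 as Ki=IC50/1.5 with SAM and Ki=IC50/13.5 with MTA, and the Ki(SAM)/Ki(MTA) ratio was then taken.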

[4] = ratio between the Ki in the presence of SAM and the Ki in the presence of MTA
[5] = ratio between Ki in the presence of SAM and Ki in the presence of MTA

Row | SMILES | IC50 (HAP1 MTAP-intact) [nM] | IC50 (HAP1 MTAP-deleted) [nM] | IC50 (PRMT5 [1]) [nM] | IC50 (PRMT5 [2]) [nM] | IC50 (PRMT5 [3]) [nM] | IC50 (PRMT5 [2]; read-out: No Co-factor IC50) [nM] | MTAP Intact/Deleted Ratio (HAP1 MTAP-deleted) | SAM/MTA Ratio (PRMT5 [3]; [4]) | SAM/MTA Ratio (PRMT5 [3]; [5])
1 | O=C(NC[C@H](O)CN1CCc2c(ccc(OCc3cnco3)c2Cl)C1)c1ccc(OC2CCOCC2)cc1 [Compound 482, (S)—N-(3-(5-chloro-6-(oxazol-5-ylmethoxy)-3,4-dihydroisoquinolin-2(1H)-yl)-2-hydroxypropyl)-4-((tetrahydro-2H-pyran-4-yl)oxy)benzamide] | ≥ 10000 | ≥ 10000 | 500 to 5000 | ≥ 5000 | 500 to 5000 |  | C* (an IC50 ratio of less than 3 fold between the IC50 in the HAP1 MTAP-intact cell line and the HAP1 MTAP-deleted cell line) | A (a Ki ratio greater than or equal to 10 fold between the Ki in the presence of SAM and the Ki in the presence of MTA) | 
2 | COCCN(C)c1nc(NC2COC2)cc(C(=O)NC[C@H](O)CN2CCc3c(ccc(OCc4cnco4)c3Cl)C2)n1 [Compound 314] | ≥ 10000 | 1000 to 10000 | 50 to 500 |  | 50 to 500 | 500 to 5000 | C* (an IC50 ratio of less than 3 fold between the IC50 in the HAP1 MTAP-intact cell line and the HAP1 MTAP-deleted cell line) |  | A (a Ki ratio greater than or equal to 10 fold between the Ki in the presence of SAM and the Ki in the presence of MTA)
3 | CC(=O)N1CC(Nc2cc(C(=O)NC[C@H](O)CN3CCc4cc(OCc5cnco5)ccc4C3)nc(C(C)C)n2)C1 [Compound 349, (S)-6-((1-acetylazetidin-3-yl)amino)-N-(2-hydroxy-3-(6-(oxazol-5-ylmethoxy)-3,4-dihydroisoquinolin-2(1H)-yl)propyl)-2-isopropylpyrimidine-4-carboxamide] | < 1000 | < 1000 | 50 to 500 |  | 50 to 500 | 500 to 5000 | C* (an IC50 ratio of less than 3 fold between the IC50 in the HAP1 MTAP-intact cell line and the HAP1 MTAP-deleted cell line) |  | A (a Ki ratio greater than or equal to 10 fold between the Ki in the presence of SAM and the Ki in the presence of MTA)
4 | O=C(NC[C@H](O)CN1CCc2cc(OCc3cnco3)ccc2C1)c1cc(NC2CCC2)ncc1F [Compound 334, (S)-2-(cyclobutylamino)-5-fluoro-N-(2-hydroxy-3-(6-(oxazol-5-ylmethoxy)-3A-dihydroisoquinolin-2(1H)-yl)propyl)isonicotinamide] | < 1000 | < 1000 | 500 to 5000 |  | 50 to 500 | ≥ 5000 | C* (an IC50 ratio of less than 3 fold between the IC50 in the HAP1 MTAP-intact cell line and the HAP1 MTAP-deleted cell line) |  | A (a Ki ratio greater than or equal to 10 fold between the Ki in the presence of SAM and the Ki in the presence of MTA)
5 | O=C(NC[C@H](O)CN1CCc2cc(OCc3cnco3)ccc2C1)c1cc(NC2CCCCC2)ncn1 [Compound 395, (S)-6-(cyclohexylamino)-N-(2-hydroxy-3-(6-(oxazol-5-ylmethoxy)-3,4-dihydroisoquinolin-2(1H)-yl)propyl)pyrimidine-4-carboxamide] | ≥ 10000 | 1000 to 10000 | 500 to 5000 |  | 50 to 500 | ≥ 5000 |  |  | A (a Ki ratio greater than or equal to 10 fold between the Ki in the presence of SAM and the Ki in the presence of MTA)

Second part, led by results:

Row | IC50 (HAP1 MTAP-intact) [nM] | IC50 (HAP1 MTAP-deleted) [nM] | IC50 (PRMT5 [1]) [nM] | IC50 (PRMT5 [2]) [nM] | IC50 (PRMT5 [3]) [nM] | IC50 (PRMT5 [2]; read-out: No Co-factor IC50) [nM] | SMILES | MTAP Intact/Deleted Ratio (HAP1 MTAP-deleted) | SAM/MTA Ratio (PRMT5 [3]; [4]) | SAM/MTA Ratio (PRMT5 [3]; [5])
6 | ≥ 10000 | 1000 to 10000 | 50 to 500 |  | 50 to 500 | 500 to 5000 | CCN1CCN(c2cc(C(=O)NC[C@H](O)CN3CCc4c(ccc(OCc5cnco5)c4Cl)C3)cc(NC3CCC3)n2)CC1 [Compound 299, (S)—N-(3-(5-chloro-6-(oxazol-5-ylmethoxy)-3N-dihydroisoquinolin-2(1H)-yl)-2-hydroxypropyl)-2-(cyclobutylamino)-6-(4-ethylpiperazin-1-yl)isonicotinamide] | B* (an IC50 ratio greater than or equal to 3 fold but lower than 10 fold between the IC50 in the HAP1 MTAP-intact cell line and the HAP1 MTAP-deleted cell line) |  | A (a Ki ratio greater than or equal to 10 fold between the Ki in the presence of SAM and the Ki in the presence of MTA)
7 | 1000 to 10000 | < 1000 | 500 to 5000 |  | 50 to 500 | ≥ 5000 | CC(C)Cc1cc(C(=O)NC[C@H](O)CN2CCc3cc(OCc4cnco4)ccc3C2)cc(NC2CCC2)n1 [Compound 307, (S)-2-(cyclobutylamino)-N-(2-hydroxy-3-(6-(oxazol-5-ylmethoxy)-3,4-dihydroisoquinolin-2(1H)-yl)propyl)-6-isobutylisonicotinamide] | C* (an IC50 ratio of less than 3 fold between the IC50 in the HAP1 MTAP-intact cell line and the HAP1 MTAP-deleted cell line) |  | A (a Ki ratio greater than or equal to 10 fold between the Ki in the presence of SAM and the Ki in the presence of MTA)
8 | ≥ 10000 | ≥ 10000 | 500 to 5000 | ≥ 5000 | 50 to 500 |  | CCN(C)c1cc(C(=O)NC[C@H](O)CN2CCc3c(ccc(OCc4ocnc4C)c3C)C2)cc(NC2CCC2)n1 [Compound 478, 2-(cyclobutylamino)-6-[ethyl(methyl)amino]-N-[(2S)-2-hydroxy-3-{5-methyl-6-[(4-methyl-1,3-oxazol-5-yl)methoxy]-1,2,3,4-tetrahydroisoquinolin-2-yl}propyl]pyridine-4-carboxamide] | C* (an IC50 ratio of less than 3 fold between the IC50 in the HAP1 MTAP-intact cell line and the HAP1 MTAP-deleted cell line) | A (a Ki ratio greater than or equal to 10 fold between the Ki in the presence of SAM and the Ki in the presence of MTA) | 
9 | ≥ 10000 | ≥ 10000 | 50 to 500 | 500 to 5000 | 50 to 500 |  | CC(C)N1CCN(c2cc(C(=O)NC[C@H](O)CN3CCc4c(ccc(OCc5cnco5)c4Cl)C3)cc(NC3CCC3)n2)CC1 [Compound 566] | C* (an IC50 ratio of less than 3 fold between the IC50 in the HAP1 MTAP-intact cell line and the HAP1 MTAP-deleted cell line) | A (a Ki ratio greater than or equal to 10 fold between the Ki in the presence of SAM and the Ki in the presence of MTA) | 
10 | ≥ 10000 | ≥ 10000 | 500 to 5000 |  | 50 to 500 | ≥ 5000 | Cc1ncoc1COc1ccc2c(c1Cl)CCN(C[C@@H](O)CNC(=O)c1cc(NC3CCCC3)ncn1)C2 [Compound 339, N-[(2S)-3-[5-chloro-6-[(4-methyl-1,3-oxazol-5-yl)methoxy]-1,2,3,4-tetrahydroisoquinolin-2-yl)-2-hydroxypropyl]-6-(cxclopentylamino)pyrimidine-4-carboxamide] | C* (an IC50 ratio of less than 3 fold between the IC50 in the HAP1 MTAP-intact cell line and the HAP1 MTAP-deleted cell line) |  | A (a Ki ratio greater than or equal to 10 fold between the Ki in the presence of SAM and the Ki in the presence of MTA)
11 | ≥ 10000 | < 1000 | 50 to 500 | 500 to 5000 | 50 to 500 |  | O=C(NC[C@H](O)CN1CCc2c(ccc(OCc3cnco3)c2Cl)C1)c1cc(NC2CCC2)nc(N2CCN(C(=O)C3CC3)CC2)c1 [Compound 571, (S)—N-(3-(5-chloro-6-(oxazol-5-ylmethoxy)-3N-dihydroisoquinolin-2(1H)-yl)-2-hydroxypropyl)-2-(cyclobutylamino)-6-(4-(cyclopropanecarbonyl)piperazin-1-yl)isonicotinamide] | A* (an IC50 ratio greater than or equal to 10 fold between the IC50 in the HAP1 MTAP-intact cell line and the HAP1 MTAP-deleted cell line) | A (a Ki ratio greater than or equal to 10 fold between the Ki in the presence of SAM and the Ki in the presence of MTA) | 
12 | 1000 to 10000 | < 1000 | 50 to 500 |  | < 50 | 500 to 5000 | Cc1ncoc1COc1ccc2c(c1)CCN(C[C@@H](O)CNC(=O)c1ccnc(NC3CCN(C(=O)C4CC4)CC3)c1)C2 [Compound 624, (S)-2-((1-(cyclopropanecarbonyl)piperidin-4-yl)amino)-N-(2-hydroxy-3-(6-((4-methyloxazol-5-yl)methoxy)-3,4-dihydroisoquinolin-2(1H)-yl)propyl)isonicotinamide] | A* (an IC50 ratio greater than or equal to 10 fold between the IC50 in the HAP1 MTAP-intact cell line and the HAP1 MTAP-deleted cell line) |  | A (a Ki ratio greater than or equal to 10 fold between the Ki in the presence of SAM and the Ki in the presence of MTA)
13 | ≥ 10000 | ≥ 10000 | 500 to 5000 |  | 500 to 5000 | ≥ 5000 | Cc1c(OCc2cnco2)ccc2c1CCN(C[C@@H](O)CNC(=O)c1cc(NC3CCCC3)ncn1)C2 [Compound 393, 6-(cyclopentylamino)-N-[(2S)-2-hydroxy-3-{5-methyl-6-[(1,3-oxazol-5-yl)methoxy]-1,2,3,4-tetrahydroisoquinolin-2-yl}propyl]pyrimidine-4-carboxamide] | C* (an IC50 ratio of less than 3 fold between the IC50 in the HAP1 MTAP-intact cell line and the HAP1 MTAP-deleted cell line) |  | A (a Ki ratio greater than or equal to 10 fold between the Ki in the presence of SAM and the Ki in the presence of MTA)
